Data: patent US8263617B2, “Chromen-2-one derivatives and their use as monoamine neurotransmitter re-uptake inhibitors” (Neurosearch A/S, priority 2006, dated 2012)
Structures can show the parent of a compound that is named as a salt.

How the values were obtained:
Format in all cases: biochemical
[1] = target: T1, reuptake of serotonine (5-HT) in synaptosomes (Rattus norvegicus, UniProt P31652); assay: Inhibition of 5-HT reuptake in synaptosomes; settings: 3H-5-HT, read-out: 5-HT-uptake IC50
T1 construct: in synaptosomes as described in WO 97/16451; from tissue
Protocol: (§1) A number of compounds were tested for their ability to inhibit the reuptake of the monoamine neurotransmitters dopamine (DA), noradrenaline (NA) and serotonine (5-HT) in synaptosomes as described in WO 97/16451.
(§2) The test values are given as IC50 (the concentration (μM) of the test substance which inhibits the specific binding of ^3H-DA, ^3H-NA, or ^3H-5-HT by 50%).

[2] = target: T2, reuptake of dopamine (DA) in synaptosomes (Rattus norvegicus, UniProt P23977); assay: Inhibition of DA reuptake in synaptosomes; settings: 3H-DA, read-out: DA-uptake IC50
T2 construct: in synaptosomes as described in WO 97/16451; from tissue
Protocol: as §1, §2

[3] = target: T3, reuptake of noradrenaline (NA) in synaptosomes (Rattus norvegicus, UniProt Q63380); assay: Inhibition of NA reuptake in synaptosomes; settings: 3H-NA, read-out: NA-uptake IC50
T3 construct: in synaptosomes as described in WO 97/16451; from tissue
Protocol: as §1, §2

T3 sequence (Q63380 1-617): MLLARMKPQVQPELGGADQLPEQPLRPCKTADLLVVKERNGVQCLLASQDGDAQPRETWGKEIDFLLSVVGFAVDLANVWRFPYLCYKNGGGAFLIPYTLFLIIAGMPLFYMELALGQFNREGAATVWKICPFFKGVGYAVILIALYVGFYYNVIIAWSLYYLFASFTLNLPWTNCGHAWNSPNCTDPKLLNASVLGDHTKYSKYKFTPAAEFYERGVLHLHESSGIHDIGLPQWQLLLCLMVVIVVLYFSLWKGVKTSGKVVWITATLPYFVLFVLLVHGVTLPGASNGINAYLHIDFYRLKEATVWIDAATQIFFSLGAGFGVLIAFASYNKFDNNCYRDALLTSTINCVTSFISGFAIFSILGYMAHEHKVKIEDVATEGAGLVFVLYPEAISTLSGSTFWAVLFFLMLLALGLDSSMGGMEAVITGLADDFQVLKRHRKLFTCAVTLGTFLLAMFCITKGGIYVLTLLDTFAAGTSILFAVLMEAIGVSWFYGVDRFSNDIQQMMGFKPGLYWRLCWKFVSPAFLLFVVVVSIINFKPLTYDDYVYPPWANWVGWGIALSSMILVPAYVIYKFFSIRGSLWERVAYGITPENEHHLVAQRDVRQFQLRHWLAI
T1 sequence (P31652 whole entry): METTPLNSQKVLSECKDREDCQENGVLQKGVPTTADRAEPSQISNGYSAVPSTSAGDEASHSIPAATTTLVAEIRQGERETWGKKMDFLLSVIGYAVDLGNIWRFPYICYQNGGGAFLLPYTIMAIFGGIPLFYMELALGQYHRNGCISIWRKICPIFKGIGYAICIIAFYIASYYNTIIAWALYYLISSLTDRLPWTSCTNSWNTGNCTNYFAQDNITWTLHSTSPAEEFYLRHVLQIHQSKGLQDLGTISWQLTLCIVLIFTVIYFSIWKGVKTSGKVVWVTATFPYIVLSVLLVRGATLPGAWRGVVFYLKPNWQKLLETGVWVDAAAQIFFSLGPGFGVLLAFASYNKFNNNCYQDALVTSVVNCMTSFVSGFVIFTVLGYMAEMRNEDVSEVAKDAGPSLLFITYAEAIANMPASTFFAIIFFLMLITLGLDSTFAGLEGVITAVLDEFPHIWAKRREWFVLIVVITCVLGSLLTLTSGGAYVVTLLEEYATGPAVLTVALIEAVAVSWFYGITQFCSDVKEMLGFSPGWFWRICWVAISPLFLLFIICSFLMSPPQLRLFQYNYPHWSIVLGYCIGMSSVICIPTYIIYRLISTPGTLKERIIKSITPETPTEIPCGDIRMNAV
T2 sequence (P23977 whole entry): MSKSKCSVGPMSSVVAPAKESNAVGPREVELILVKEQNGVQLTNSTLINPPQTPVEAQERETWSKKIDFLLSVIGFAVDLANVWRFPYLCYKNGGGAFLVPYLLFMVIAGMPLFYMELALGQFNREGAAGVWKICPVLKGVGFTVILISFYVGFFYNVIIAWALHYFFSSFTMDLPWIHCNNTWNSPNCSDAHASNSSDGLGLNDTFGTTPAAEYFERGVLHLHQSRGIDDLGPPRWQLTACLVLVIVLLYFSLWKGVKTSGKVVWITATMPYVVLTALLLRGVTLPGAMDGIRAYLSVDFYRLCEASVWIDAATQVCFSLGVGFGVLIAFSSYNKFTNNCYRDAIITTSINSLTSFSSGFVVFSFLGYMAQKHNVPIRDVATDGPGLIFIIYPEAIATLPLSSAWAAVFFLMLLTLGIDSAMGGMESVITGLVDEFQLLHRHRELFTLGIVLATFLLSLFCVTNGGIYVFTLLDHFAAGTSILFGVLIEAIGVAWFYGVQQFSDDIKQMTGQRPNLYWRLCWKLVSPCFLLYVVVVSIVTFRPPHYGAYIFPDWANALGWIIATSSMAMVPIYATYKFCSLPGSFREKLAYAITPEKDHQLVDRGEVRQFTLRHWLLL

## O=c1oc2cc(OC3CC4CCC(C3)N4)ccc2cc1-c1cc2ccccc2o1 [3rd Compound of Method A, exo-7-[(1S,3S,5R)-(8-Aza-bicyclo[3.2.1]oct-3-yl)oxy]-3-benzofuran-2-yl-chromen-2-one hydrochloric acid salt]
[1]
  IC50: 9.1 nM
[2]
  IC50: 700 nM
[3]
  IC50: 840 nM

## O=c1oc2cc(OC3CC4CCC(C3)N4)ccc2cc1-c1ccoc1 [2nd Compound of Method A, exo-7-[(1S,3S,5R)-(8-Aza-bicyclo[3.2.1]oct-3-yl)oxy]-3-furan-3-yl-chromen-2-one hydrochloric acid salt]
[1]
  IC50: 10 nM
[2]
  IC50: 9.9 nM
[3]
  IC50: 0.48 nM

## O=c1oc2cc(OC3CC4CCC(C3)N4)ccc2cc1-c1ccco1 [1st Compound of Method A, exo-7-[(1S,3S,5R)-(8-Aza-bicyclo[3.2.1]oct-3-yl)oxy]-3-furan-2-yl-chromen-2-one hydrochloric acid salt]
[1]
  IC50: 7.7 nM
[2]
  IC50: 34 nM
[3]
  IC50: 4.3 nM
